From PubChem BioAssay AID624269 (Broad Institute, 2012)
The source made the active and inactive calls. The rule behind the calls is not given here.

Tests used:
[1] = Vibrio cholerae BH1651 luxOD47E, luciferase light induction, confirmatory dose response (AID 624269); conditions: Vibrio cholerae BH1651 luxOD47E, luciferase light induction, 6 h
[2] = system: Vibrio cholerae BH1651 luxOD47E, luciferase light induction, 6 h; assay: as above

Row | SMILES | activation ([1]; at 35 µM (top of the series)) | other results
1 | CCCn1nnnc1NCc1ccc(N2CCCC2)cc1 | -50% (inactive) | 
2 | Cc1ccc2cc3c(NC(=O)c4ccco4)nn(C)c3nc2c1 |  | AC40 [2]: > 35000 nM (inactive)
3 | CCn1nnc(NCc2ccc(C)cc2)n1 | 0% (inactive) | 
4 | CCCn1nnnc1NCc1ccc(C(C)C)cc1 | 33.3% (inactive) | 
5 | CCn1nnnc1NCc1ccc(N2CCCC2)cc1 | 66.7% (inactive) | 
6 | O=C(Cc1ccc(-c2ccccc2)cc1)NC1CCCC1 |  | AC40 [2]: 239 nM
7 | CCC(C)NC(=O)Cc1ccc(-c2ccccc2)cc1 (stereo not given) | -33.3% (inactive) | 
8 | O=C(Nc1nnc(-c2ccc3c(c2)OCCO3)o1)C1CCCCC1 |  | AC40 [2]: 0.865 nM
9 | COc1ccc(Cl)cc1NC(=O)COC(=O)c1ccc(C)o1 | 0% (inactive) | 
10 | CCOc1ccc(Nc2ccc3nonc3c2[N+](=O)[O-])cc1 | 0% (inactive) | 
11 | Cc1c(Cl)cccc1-n1cnc(=O)c2ccccc21 | 50% (inactive) | 
12 | Cc1ccc(OCCNC(=O)c2cccc(C)c2)cc1 |  | AC40 [2]: 312 nM
13 | O=c1ncn(-c2cccc(Cl)c2)c2ccccc12 |  | activation ([1]; at 8 µM (top of the series)): 0% (inactive)
14 | CCCn1nnnc1NCc1ccc(N(CC)CC)cc1 | 0% (inactive) | 
15 | CCCn1nnnc1NCc1ccccc1Cl |  | activation ([1]; at 8 µM (top of the series)): 0% (inactive)
16 | COc1ccccc1NC(=O)COC(=O)c1cc2c(s1)CCC2 | 0% (inactive) | 
17 | CCn1c(CC(=O)Nc2cccc(Cl)c2Cl)nnc1SCCOc1ccc(OC)cc1 | -50% (inactive) | 
18 | Cc1ccc(CC(=O)NC2CCCC2)cc1 | 0% (inactive) | 
19 | COc1ccccc1NC(=O)COC(=O)c1oc2ccccc2c1C | 0% (inactive) | 
20 | COc1ccccc1NC(=O)COC(=O)c1ccc(C)cc1 | 0% (inactive) | 
